From EP4653001A1, “TREATMENT, DIAGNOSIS AND/OR PROGNOSIS OF MITOCHONDRIAL DISEASES” (Universidad Autónoma de Madrid, priority 2024, dated 2025)

Assays:
mouse primary astrocytes = experiment: Morphology, proliferation and viability of primary astrocytes; type: cell-based
Protocol: All cell lines, 143b, HeLa, U2OS, and transmitochondrial cybrids carrying mutation in CI (ND2), CIII (CytB) or CIV (Cox2) subunits, were maintained in DMEM high glucose (HyClone), 10% FBS and 1% P/S at 37°C with 5% CO2. Mitochondrial mutant cells were cultured with supplementation of 50 µg/mL uridine. The selected cancer cell lines with different levels of malic enzyme (HCC15, KYSE410, CAKI1, J82, MDAMB453, Colo320, NCIH1703) were obtained from the DSMZ-German Collection of Microorganisms and Cell Cultures GmbH and cultured in the same DMEM 10% FBS medium. OCI-Lys3 and RCH-ACV cell lines (cells in suspension), were obtained from the same repository and cultured in RPMI 10% FBS medium. Transfections for gain- and loss-of-function studies were performed according to the manufacturer's instructions using the polyfect reagent (Qiagen, 301107). For cell number and proliferation experiments, cells were seeded in 12 or 6-well plates and allowed to proliferate for the specified durations. Subsequently, cells were trypsinized and quantified using a hemocytometer (NanoEnTek, DHC-N01). Cell viability was quantified using propidium iodide (PI; 50 µg/ml) staining.
Primary cultures of C57BL/6 mouse cortical astrocytes were derived from postnatal day 2-3 pups. […]

primary neurons = experiment: Patch-clamp capacitance analysis; type: cell-based, mouse; settings: CI inhibition
Protocol: A glass coverslip containing mixed cortical cultures of 10-14 DIV was placed in an immersion chamber constantly perfused with aCSF (119 mM NaCl, 2.5 mM KCl, 2.5 mM CaCl2, 1.2 mM MgCl2, 26 mM NaHCO3, 1 mM NaH2PO4, 11 mM glucose pH adjusted to 7.4 and osmolarity to 290 ±5 mOsm) gassed with carbogen (5-10% CO2, 90-95% O2) and its temperature closely monitored at 29°C. Cells were recorded under current-clamp configuration with patch recording glass electrodes (4-6 MΩ) composed of silver/silver chloride electrodes inserted in glass pipettes filled with internal solution (115 mM K gluconate, 20 mM KCl, 10 mM HEPES, 2 mM MgCl2, 4 mM Na2-ATP, 0.3 mM Na3-GTP pH adjusted to 7.2-7.3 and osmolarity to 290 ±5 mOsm). Resting membrane potential was directly acquired from these recordings. Voltage responses to current injections of -100 pA were used to calculate whole-cell input resistance and membrane capacitance. This last parameter is calculated from the exponential time constant (τ) of the voltage change, as τ=R*C (R: input resistance, C: capacitance).
Data acquisition was carried out with MultiClamp 700 A/B amplifiers and pCLAMP 9/10 software (Molecular Devices). Data analysis was performed using Clampfit software (Molecular Devices).

mouse cortical neurons = experiment: L-lactate release in neurons (Lactate-Glo); type: cell-based
Protocol: Primary cultures of C57BL/6 mouse cortical neurons were prepared from embryos between embryonic days 16.5 and 17.5 and seeded onto pre-treated plates coated with Poly-L-lysine hydrobromide (500 µg/ml). We used Neurobasal medium without D-glucose and sodium pyruvate (ThermoFisher) to modulate D-glucose levels, depending on the experiment (2.5 mM, 5 mM, or 25 mM).
L-lactate levels were measured in mouse cortical neurons using Lactate-Glo™ Assay (Promega, #J5021) following the original protocol.
Increased lactate secretion is considered a good indicator of enhanced glycolytic rates, which is a common feature of ETC-inhibited cells as they switch from OXPHOS to glycolysis to maintain ATP levels. […] We culture 143B cells in the presence of Piericidin for 24 h and PPP activity and lactate release, as a proxy of glycolysis, were measured. As expected, lactate detection in the media was higher in CI-inhibited cells. […] Next, we wonder if in this context, glucose can be overused by glycolysis and therefore diverted away from the PPP. Diseases associated with impaired mitochondrial function negatively impact high energy demanding tissues such as the brain. As such, neurons that are highly sensitive to ETC inhibition also rely strongly on glucose metabolism. Thus, we used mouse cortical neurons to determine the rates of glycolysis and PPP as glucose levels become limiting. Control and Piericidin treated neurons where cultured in media containing supraphysiological (25 mM), physiological (5 mM) or subphysiological concentrations of glucose (2,5 mM). […] Decreased PPP activity under low glucose (2,5 mM) correlated with a rapid decline in NADPH/NADP+ levels in CI-inhibited cells. Conversely, glucose availability had no effect on ATP levels at this timepoint.

Q: Which results are given for `CC=C(C)C(O)C(C)C=C(C)C=CCC(C)=CCc1nc(OC)c(OC)c(O)c1C` (stereo not drawn) [Piericidin, Piericidin A]?
A: proliferation (mouse primary astrocytes; PC and ME1 knockdown astrocytes vs WT controls, 100nM, 96 h): proliferated less; morphology, proliferation, or overall viability (mouse primary astrocytes; mouse primary astrocytes): no discernible impact; capacitance (primary neurons): lower; lactate secretion (mouse cortical neurons; 5 mM glucose, trend, did not reach statistical significance): increased lactated secretion; levels of lactate (mouse cortical neurons; limited glucose availability (2,5 mM), 100 nM, 16 h): preserving; lactate (mouse cortical neurons; neurons cultured in 25 mM glucose, 100 nM, 16 h): significantly upregulation
